Results as given in paper PMC3652196, “Pharmacometrics of 3-Methoxypterostilbene: A Component of Traditional Chinese Medicinal Plants” (Evidence-based Complementary and Alternative Medicine : eCAM, 2013).

Experiments:
[1] = humans; cited from earlier work
[2] = test system: α-glucosidase from Saccharomyces cerevisiae; assay: α-Glucosidase inhibition colorimetric assay (PNPG); assay type: biochemical; settings: 0 to 200 μg/mL, n = 6

In the case of `Oc1ccc(/C=C/c2cc(O)cc(O)c2)cc1` [resveratrol], the bioavailability [1] is given as less than 1% and the “α-Glucosidase inhibition (in words)” value [2] is given as “clear positive concentration-dependent inhibition relationship”.
